Data published in patent US20260366023A1, “SORTILIN INHIBITORS FOR TREATMENT OF PATIENTS WITH FUNCTIONAL NEUROENDOCRINE TUMORS” (priority 2023, published 2026).

How the values were obtained:
[1] = tested on: BON neuroendocrine tumor cells; assay: Serotonin (5HT) content of BON cell lysates after sortilin inhibition, HPLC; type: cell-based, human; settings: 10 μM; 23 h in serotonin free medium, then fresh inhibitor for two more hours; compared to control
Method: (§1) (A)-(D) BON neuroendocrine tumor cells were incubated for 23 h in serotonin free medium with (Sort Inh) or without (Control) the sortilin inhibitor AF38469 (10 μM). Afterwards, the serotonin (5HT, A), Tryptophan (TRP, B) and Tyrosin (TYR, C) content as well as the content of the serotonin metabolite 5-hydroxyindoleacetic acid (5-HIAA) in the cell culture supernatant was assessed using high performance liquid chromatography (HPLC). The cells were treated with fresh sortilin inhibitor for two more hours. Subsequently, the 5HT, (E, F), TRP, (G, H) and TYR (I, J) content in the cell lysates was measured in the presence or absence of the secretion inductor of monoamines Paramethoxyamphetamin (PMA) via HPLC as well.
(§2) Next, we wanted to analyze whether sortilin has a functional role in hormone production or secretion of neuroendocrine tumors. We focused on one of the most relevant functional syndromes, i. e. the carcinoid syndrome which is caused due to the overproduction and secretion of serotonin (Clement et al., 2020). […] Afterwards we measured the serotonin (5HT) content in the cell culture supernatant by using high performance liquid chromatography (HPLC) (FIG. 3A-D). […] Subsequently, the 5HT content in the cell lysates was measured by using HPLC as well (FIG. 3E-J).

[2] = tested on: BON neuroendocrine tumor cells; assay: Serotonin (5HT) content of BON cell culture supernatant (secretion) after sortilin inhibition, HPLC; type: cell-based, human
Method: as §1, §2

BON cells = assay: Alamar Blue cell proliferation/viability assay of BON cells after sortilin inhibition; type: cell-based, human; settings: 5 d of sortilin inhibition
Method: FIG. 4: Proliferation of BON cells after sortilin inhibition. To exclude the possibility of toxic effects of sortilin inhibition on BON cells, a cell proliferation assay was performed using the Alamar Blue cell viability assay 5 days after sortilin inhibition.
To exclude the possibility of toxic effects of sortilin inhibition on the BON cells and thereby reducing 5HT production, we performed a cell proliferation assay using Alamar Blue.

[3] = tested on: murine intestinal organoids enriched with neuroendocrine cells; assay: Serotonin content of murine intestinal organoids enriched with neuroendocrine cells, HPLC; type: cell-based; settings: 10 μM, four days, organoid lysates, vs control
Method: FIG. 7: Effect of sortilin inhibition on serotonin content of neuroendocrine organoids. (A) Experimental scheme for testing the effects of sortilin inhibition on serotonin levels in neuroendocrine organoids. Murine intestinal organoids are generated and enriched with neuroendocrine cells as previously described in (Kawasaki et al, 2018; Basak et al, 2017). […] Organoids are subsequently incubated four days in the absence (control) or the presence of the sortilin inhibitor AF38469 (10 μM). The lysates of these organoids are next harvested, and serotonin levels are measured by HPLC.
Some of these organoids were treated additionally four days with the sortilin inhibitor AF38469 (10 μM). Subsequently, the lysates of these organoids were harvested, and serotonin was measured by HPLC (FIG. 7A).

sortilin [4] = settings: Schroder et al, 2014; cited from earlier work
[5] = Schroder et al, 2014; cited from earlier work
[6] = cited from earlier work
[7] = cited from earlier work; remark: listed apart in the source
sortilin [8] = settings: Lee et al., 2014; cited from earlier work
sortilin [9] = settings: Phase 2 and Phase 3 clinical trials, including NCT04374136, NCT03987295, NCT03636204 and NCT05053035; cited from earlier work

Q: For Cc1cccc(NC(=O)c2ccc(C(F)(F)F)cc2C(=O)O)n1 [AF38469, 2-[[(6-methyl-2-pyridinyl)amino]carbonyl]-5-(trifluoromethyl)-benzoic acid], which “cellular content of 5HT” value [1] is on record?
A: significantly lower

Q: And the “concentration of 5HT in the supernatants” value ([2]; 10 μM, 23 h in serotonin free medium, HPLC)?
A: below the detection level

Q: And the “secretion of serotonin by NEN cells” value ([2]; NEN cells, summary statement referring to the Examples)?
A: suppress

Q: And the “reduction in cell proliferation” value (BON cells)?
A: could exclude any reduction in cell proliferation

Q: And the “concentration of serotonin (5HT) per cell” value [3]?
A: lower concentration

Q: And the “selectivity for sortilin over several of its naturally occurring ligands, including neurotensin-1” value (sortilin [4])?
A: highly selective

Q: What about the oral bioavailability [5] of the same molecule?
A: orally bioavailable

Q: With Cc1cc(=O)oc2c(CN[C@@H](CC(C)C)C(=O)O)c(O)ccc12 [AF40431, (2S)-2-{[(7-hydroxy-4-methyl-2-oxo-2H-chromen-8-yl)methyl]amino}-4-methylpentanoic acid] as the molecule, how does the solubility [6] read?
A: comparably poor

Q: What about the membrane permeability [7] of the same molecule?
A: comparably poor

Q: With Cc1ccc(C(C)(C)C)c(OCCN2CCCC(C)C2)c1 (stereo not drawn) [MPEP, 1-[2-(2-tert-butyl-5-methylphenoxy)-ethyl]-3-methylpiperidine] as the molecule, how does the degradation of sortilin (sortilin [8]) read?
A: increasing

Q: What about the sortilin protein levels (sortilin [8]) of the same molecule?
A: suppressing

B1: AL001: anti-sortilin antibody; heavy chain having an amino acid sequence of SEQ ID NO: 1 and a light chain having an amino acid sequence of SEQ ID NO: 2 (antibody, chains of the INN, looked up, V domains shown)
VH: QVQLQESGPGLVKPSETLSLTCAVSGYSISSGYYWGWIRQPPGKGLEWIGTIYHSGSTYYNPSLKSRVTISVDTSKNQFSLKLSSVTAADTAVYYCARQGSIKQGYYGMDVWGQGTTVTVSS
VL: DIVMTQSPLSLPVTPGEPASISCRSSQSLLRSTGYNYLDWYLQKPGQSPQLLIYLGSNRASGVPDRFSGSGSGTDFTLKISRAEAEDVGVYYCMQQQEAPLTFGGGTKVEIK
Q: With B1 as the molecule, how does the “treatment of frontotemporal dementia and/or ALS” value (sortilin [9]) read?
A: successfully tested
